Reference: patent US20150111864A1, “CRYSTALLINE FORM OF A BETA-LACTAMASE INHIBITOR” (Cubist Pharmaceuticals, Inc., priority 2013, published 2015)

Tests used:
Ecl.569 (AmpC, clinical) = assay: Standard BLI Potentiation MIC Assay in Combination with Ceftolozane; format: cell-based, Enterobacter spp; conditions: Enterobacter, read-out: MIC of Ceftolozane, No BLI
Procedure: (§1) The experimental protocol was performed according to Clinical and Laboratory Standards Institute (CLSI) guidelines with modifications as described below (CLSI guidelines can be derived from the CLSI document M07-A9 published in January 2012: “Methods for Dilution Antimicrobial Susceptibility Tests for Bacteria That Grow Aerobically; Approved Standard-Ninth Edition”).
(§2) Frozen glycerol stocks of laboratory engineered, isogenic E. coli strains, which contain cloned β-lactamase expressing plasmids were used to streak for isolated colonies on rich, selective LB agar supplemented with 25 μg/mL tetracycline to maintain the plasmid. All strains were incubated at 37° C. for 18-24 hrs.
(§3) On the day of testing, primary cultures were started by scraping off 5-10 colonies from the TSAB plates containing clinical strains or the tetracycline supplemented LB plates containing engineered strains. […]
(§4) Plates were incubated for 18-20 hours at 37° C. with aeration (200 rpm). Following incubation, growth was confirmed visually placing plates over a viewing apparatus (stand with a mirror underneath) and then OD600 was measured using a SpectraMax 340PC384 plate reader (Molecular Devices, Sunnyvale, Calif.). Growth was defined as turbidity that could be detected with the naked eye or achieving minimum OD600 of 0.1. […]

[1] = test system: Eco.2902 (Aba-ADC-33, isogenic); assay: as above; format: cell-based; conditions: Escherichia coli, read-out: MIC of Ceftolozane, No BLI
Procedure: as §1, §2, §3, §4

[2] = test system: Panel of Isogenic and Clinical Strains Expressing β-Lactamases; assay: Standard BLI Potentiation MIC Assay in Combination with Ceftolozane, whole panel; format: cell-based; conditions: panel of 24 strains; no BLI
Procedure: as §1, §2
(§5) On the day of testing, primary cultures were started by scraping off 5-10 colonies from the TSAB plates containing clinical strains or the tetracycline supplemented LB plates containing engineered strains. The clinical strain material was suspended in ˜5 mL of cation adjusted Mueller Hinton Broth (CAMHB) in 14 mL culture tubes. The engineered strain material was suspended in CAMHB (supplemented with 25 μg/mL tetracycline) in 14 mL culture tubes. All strains were incubated at 37° C. with aeration (200 rpm) for ˜2 hrs until the optical density at 600 nm (OD600) was ≧0.1.
(§6) The two compound components of the assay were each diluted in CAMHB and added to the 96-well broth microdilution assay plates. 50 μL of the β-lactam was added to each well of the assay plate in 2-fold dilutions with final concentrations ranging from 128 to 0.13 μg/mL. 25 μL of the BLI compound was added to all wells in the broth microdilution plates at a final concentration of 4 μg/mL. Inoculum cultures were prepared by standardizing the primary cultures to OD600=0.1 and then adding 20 μL of the adjusted primary culture per 1 mL CAMHB for clinical strains or CAMHB (supplemented with tetracycline at 100 μg/mL) for engineered strains, so that the final inoculum density was ˜10^5 colony forming units per milliliter. Diluted inoculum cultures were used to inoculate 25 μL per well in 96-well broth microdilution assay plates. The final volume of each well was 100 μL and contained a β-lactam at different concentrations, a BLIcompound at 4 μg/mL concentration, the bacterial culture at an OD600 of approximately 0.001 and when necessary tetracycline at 25 μg/mL.
as §4

[3] = test system: Eco.2491 (CMY-2, clinical); assay: Standard BLI Potentiation MIC Assay in Combination with Ceftolozane; format: cell-based, Escherichia coli; conditions: Escherichia coli, read-out: MIC of Ceftolozane, No BLI
Procedure: as §1, §2, §5, §6
(§7) Plates were incubated for 18-20 hours at 37° C. with aeration (200 rpm). Following incubation, growth was confirmed visually placing plates over a viewing apparatus (stand with a mirror underneath) and then OD600 was measured using a SpectraMax 340PC384 plate reader (Molecular Devices, Sunnyvale, Calif.). Growth was defined as turbidity that could be detected with the naked eye or achieving minimum OD600 of 0.1. MIC values were defined as the lowest concentration producing no visible turbidity.

[4] = test system: Eco.2843 (DHA-1, isogenic); assay: as above; format: cell-based, Escherichia coli; conditions: Escherichia coli, read-out: MIC of Ceftolozane, No BLI
Procedure: as §1, §2, §5, §6, §7

[5] = test system: Eco.2845 (OXA-15, isogenic); assay: as above; format: cell-based, Escherichia coli; conditions: Escherichia coli, read-out: MIC of Ceftolozane, No BLI
Procedure: as §1, §2, §5, §6, §7

Cfr.568 (AmpC, clinical) = assay: as above; format: cell-based, Citrobacter spp; conditions: Citrobacter, read-out: MIC of Ceftolozane, No BLI
Procedure: as §1, §2, §3, §4

[6] = test system: Pae.2757 (AmpC over-expn, clinical); assay: as above; format: cell-based, Pseudomonas aeruginosa; conditions: Pseudomonas aeruginosa, read-out: MIC of Ceftolozane, No BLI
Procedure: as §1, §2, §5, §6, §7

[7] = test system: Pae.2863 (AmpC de-repress, clinical); assay: as above; format: cell-based, Pseudomonas aeruginosa; conditions: Pseudomonas aeruginosa, read-out: MIC of Ceftolozane, No BLI
Procedure: as §1, §2, §5, §6, §7

[8] = test system: Pae.2885 (AmpC, clinical); assay: as above; format: cell-based, Pseudomonas aeruginosa; conditions: Pseudomonas aeruginosa, read-out: MIC of Ceftolozane, No BLI
Procedure: as §1, §2, §5, §6, §7

[9] = test system: Eco.2781 (KPC-2, TEM+, clinical); assay: as above; format: cell-based; conditions: Escherichia coli, read-out: MIC of Ceftolozane, No BLI
Procedure: as §1, §2, §5
as §6, with “plates.” for “plates. The final volume of each well was 100 μL and contained a β-lactam at different concentrations, a BLIcompound at 4 μg/mL concentration, the bacterial culture at an OD600 of approximately 0.001 and when necessary tetracycline at 25 μg/mL.”

[10] = test system: Eco.2840 (KPC-4, isogenic); assay: as above; format: cell-based; conditions: Escherichia coli, read-out: MIC of Ceftolozane, No BLI
Procedure: as §1, §2, §5
as §6, with “plates.” for “plates. The final volume of each well was 100 μL and contained a β-lactam at different concentrations, a BLIcompound at 4 μg/mL concentration, the bacterial culture at an OD600 of approximately 0.001 and when necessary tetracycline at 25 μg/mL.”

[11] = test system: Kpn.2914 (KPC-2, SHV+, clinical); assay: as above; format: cell-based; conditions: Klebsiella pneumoniae, read-out: MIC of Ceftolozane, No BLI
Procedure: as §1, §2, §5
as §6, with “plates.” for “plates. The final volume of each well was 100 μL and contained a β-lactam at different concentrations, a BLIcompound at 4 μg/mL concentration, the bacterial culture at an OD600 of approximately 0.001 and when necessary tetracycline at 25 μg/mL.”

[12] = test system: Kpn.2918 (KPC-3, SHV+, TEM+, clinical); assay: as above; format: cell-based; conditions: Klebsiella pneumoniae, read-out: MIC of Ceftolozane, No BLI
Procedure: as §1, §2, §5
as §6, with “plates.” for “plates. The final volume of each well was 100 μL and contained a β-lactam at different concentrations, a BLIcompound at 4 μg/mL concentration, the bacterial culture at an OD600 of approximately 0.001 and when necessary tetracycline at 25 μg/mL.”

[13] = test system: Pae.2808 (KPC-2, clinical); assay: as above; format: cell-based; conditions: Pseudomonas aeruginosa, read-out: MIC of Ceftolozane, No BLI
Procedure: as §1, §2, §5
as §6, with “plates.” for “plates. The final volume of each well was 100 μL and contained a β-lactam at different concentrations, a BLIcompound at 4 μg/mL concentration, the bacterial culture at an OD600 of approximately 0.001 and when necessary tetracycline at 25 μg/mL.”

[14] = test system: Kpn.2926 (CTX-M-15, OXA-48, clinical); assay: as above; format: cell-based; conditions: Klebsiella pneumoniae, read-out: MIC of Ceftolozane, No BLI
Procedure: as §1, §2, §5
as §6, with “plates.” for “plates. The final volume of each well was 100 μL and contained a β-lactam at different concentrations, a BLIcompound at 4 μg/mL concentration, the bacterial culture at an OD600 of approximately 0.001 and when necessary tetracycline at 25 μg/mL.”

[15] = test system: Kpn.2913 (KPC-2, SHV+, clinical); assay: as above; format: cell-based; conditions: Klebsiella pneumoniae, read-out: MIC of Ceftolozane, No BLI
Procedure: as §1, §2, §5
as §6, with “plates.” for “plates. The final volume of each well was 100 μL and contained a β-lactam at different concentrations, a BLIcompound at 4 μg/mL concentration, the bacterial culture at an OD600 of approximately 0.001 and when necessary tetracycline at 25 μg/mL.”

[16] = test system: Kpn.571 (TEM-26, clinical); assay: as above; format: cell-based; conditions: Klebsiella pneumoniae, read-out: MIC of Ceftolozane, No BLI
Procedure: as §1, §2, §5
as §6, with “plates.” for “plates. The final volume of each well was 100 μL and contained a β-lactam at different concentrations, a BLIcompound at 4 μg/mL concentration, the bacterial culture at an OD600 of approximately 0.001 and when necessary tetracycline at 25 μg/mL.”

[17] = test system: Kpn.2909 (KPC-3, SHV+, TEM+, clinical); assay: as above; format: cell-based; conditions: Klebsiella pneumoniae, read-out: MIC of Ceftolozane, No BLI
Procedure: as §1, §2, §5
as §6, with “plates.” for “plates. The final volume of each well was 100 μL and contained a β-lactam at different concentrations, a BLIcompound at 4 μg/mL concentration, the bacterial culture at an OD600 of approximately 0.001 and when necessary tetracycline at 25 μg/mL.”

[18] = test system: Eco.2806 (KPC-2, isogenic); assay: as above; format: cell-based; conditions: Escherichia coli, read-out: MIC of Ceftolozane, No BLI
Procedure: as §1, §2, §5
as §6, with “plates.” for “plates. The final volume of each well was 100 μL and contained a β-lactam at different concentrations, a BLIcompound at 4 μg/mL concentration, the bacterial culture at an OD600 of approximately 0.001 and when necessary tetracycline at 25 μg/mL.”

[19] = test system: Kpn.2478 (KPC-3, TEM+, clinical); assay: as above; format: cell-based; conditions: Klebsiella pneumoniae, read-out: MIC of Ceftolozane, No BLI
Procedure: as §1, §2, §5
as §6, with “plates.” for “plates. The final volume of each well was 100 μL and contained a β-lactam at different concentrations, a BLIcompound at 4 μg/mL concentration, the bacterial culture at an OD600 of approximately 0.001 and when necessary tetracycline at 25 μg/mL.”

Eco.2711 (KPC, clinical) = assay: as above; format: cell-based; conditions: Escherichia coli, read-out: MIC of Ceftolozane, No BLI
Procedure: as §1, §2, §5
as §6, with “plates.” for “plates. The final volume of each well was 100 μL and contained a β-lactam at different concentrations, a BLIcompound at 4 μg/mL concentration, the bacterial culture at an OD600 of approximately 0.001 and when necessary tetracycline at 25 μg/mL.”

[20] = test system: Kpn.2490 (KPC-3, SHV+, TEM+, clinical); assay: as above; format: cell-based; conditions: Klebsiella pneumoniae, read-out: MIC of Ceftolozane, No BLI
Procedure: as §1, §2, §5
as §6, with “plates.” for “plates. The final volume of each well was 100 μL and contained a β-lactam at different concentrations, a BLIcompound at 4 μg/mL concentration, the bacterial culture at an OD600 of approximately 0.001 and when necessary tetracycline at 25 μg/mL.”

[21] = test system: Kpn.2917 (KPC-2, SHV+, clinical); assay: as above; format: cell-based; conditions: Klebsiella pneumoniae, read-out: MIC of Ceftolozane, No BLI
Procedure: as §1, §2, §5
as §6, with “plates.” for “plates. The final volume of each well was 100 μL and contained a β-lactam at different concentrations, a BLIcompound at 4 μg/mL concentration, the bacterial culture at an OD600 of approximately 0.001 and when necessary tetracycline at 25 μg/mL.”

[22] = test system: Kpn.2783 (CTX-M-15, SHV+, TEM+, clinical); assay: as above; format: cell-based; conditions: Klebsiella pneumoniae, read-out: MIC of Ceftolozane, No BLI
Procedure: as §1, §2, §5
as §6, with “plates.” for “plates. The final volume of each well was 100 μL and contained a β-lactam at different concentrations, a BLIcompound at 4 μg/mL concentration, the bacterial culture at an OD600 of approximately 0.001 and when necessary tetracycline at 25 μg/mL.”

What does the source list for `Cn1c(N)c(NC(=O)NCCN)c[n+]1CC1=C(C(=O)O)N2C(=O)[C@@H](NC(=O)/C(=N\OC(C)(C)C(=O)[O-])c3nsc(N)n3)[C@H]2SC1` [Ceftolozane]?
MIC (Ecl.569 (AmpC, clinical)): > 64 µg/mL; MIC [1]: > 64 µg/mL; MIC50 [2]: > 64 µg/mL; MIC90 [2]: > 64 µg/mL; MIC [3]: 16 to 32 µg/mL; MIC [4]: > 64 µg/mL; MIC [5]: > 64 µg/mL; MIC (Cfr.568 (AmpC, clinical)): > 64 µg/mL; MIC [6]: 4 to 8 µg/mL; MIC [7]: 4 to 8 µg/mL; MIC [8]: 1 to 2 µg/mL; MIC [9]: 4 to 8 µg/mL; MIC [10]: > 64 µg/mL; MIC [11]: 16 to 32 µg/mL; MIC [12]: > 64 µg/mL; MIC [13]: > 64 µg/mL; MIC [14]: > 64 µg/mL; MIC [15]: 16 to 32 µg/mL; MIC [16]: 16 to 32 µg/mL; MIC [17]: > 64 µg/mL; MIC [18]: > 64 µg/mL; MIC [19]: > 64 µg/mL; MIC (Eco.2711 (KPC, clinical)): 16 to 32 µg/mL; MIC [20]: > 64 µg/mL; MIC [21]: 16 to 32 µg/mL; MIC [22]: > 64 µg/mL
